Assay results taken from publication PMC4750079, “Tackling amyloidogenesis in Alzheimer’s disease with A2V variants of Amyloid-β” (Scientific Reports, 2016).
Where a SMILES comes first, the peptide text is derived from it. [ ]: non-standard residue; d: D form.

Biological target: T1, Aβ1-42WT (Homo sapiens, UniProt P05067)
T1 construct: Aβ1-42WT oligomers were formed following incubation of Aβ1-42WT at a final concentration of 100 μM; made in house; host or cells: chemical synthesis (solid-phase Fmoc), no expression host
T1 sequence (P05067 672-713 limits assumed): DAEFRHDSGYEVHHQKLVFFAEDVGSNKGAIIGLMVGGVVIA
Test: Atomic force microscopy of Aβ1-42WT oligomerization
Format: biochemical
Conditions: Aβ1-42WT 100 μM co-incubated with peptide 1:4, pH 7.4, 4 °C, 24 h, AFM
Experimental: In polarized-light and EM studies, both peptides were used at 0.125 mM, molar ratio = 1:1 or 1:4 respectively, with 20 days incubation. […] E,F: Representative Tapping mode of AFM images as determined by amplitude error data of Aβ1-42WT oligomers. Aβ1-42WT peptide 100 μM in phosphate buffer 50 mM, pH 7.4 was incubated at 4 °C for 24 h alone (E) (Z range: -10/ + 10 mV) or in presence of Aβ1-6A2VTAT(D) (F) (Z range: -10/ + 25 mV). The molar ratio of Aβ1-42WT to Aβ1-6A2VTAT(D) was 1:4. Scale bar: 1 μm, inset: 200 nm. (G,H): height plot profiles obtained along different lines traced on the topographic AFM images.
Aβ1-42WT oligomers were formed following incubation of Aβ1-42WT at a final concentration of 100 μM in phosphate buffer 50 mM, pH 7.4 at 4 °C for 24 h, alone or in presence of Aβ1-6A2VTAT(D), at 1:4 molar ratio. Sample solutions were diluted to a final concentration of 10 μM of Aβ1-42WT with phosphate buffer and 50 μl of each solution was immediately added onto freshly cleaved mica at room temperature for 2 minutes. Samples were washed and dried under gentle nitrogen flow. AFM analyses were carried out on a Multimode AFM with a Nanoscope V system (Veeco/Digital Instruments). AFM images were analysed using the Scanning Probe Image Processor data analysis package. All the topographic patterns and SPIP characterization were verified via additional measurements on a minimum of five different, well separated areas.

SMILES: CC(C)[C@@H](NC(=O)[C@H](N)CC(=O)O)C(=O)N[C@H](CCC(=O)O)C(=O)N[C@H](Cc1ccccc1)C(=O)N[C@H](CCCNC(=N)N)C(=O)N[C@H](Cc1c[nH]cn1)C(=O)NCC(=O)NCC(=O)NCC(=O)NCC(=O)NCC(=O)N[C@H](CCCNC(=N)N)C(=O)N[C@H](CCCCN)C(=O)N[C@H](CCCCN)C(=O)N[C@H](CCCNC(=N)N)C(=O)N[C@H](CCCNC(=N)N)C(=O)N[C@H](CCC(N)=O)C(=O)N[C@H](CCCNC(=N)N)C(=O)N[C@H](CCCNC(=N)N)C(=O)N[C@H](CCCNC(=N)N)C(=O)O [Aβ1-6A2VTAT(D)] (H-[dD][dV][dE][dF][dR][dH]GGGGG[dR][dK][dK][dR][dR][dQ][dR][dR][dR]-OH; N-terminus assumed)
- diameter of very small globular structures (~70%): 5-8 nm
- oligomeric structures of Aβ1-42WT detected: only rare oligomeric structures were detected
